Experimental data as given in US8034827B2, “Phenanthridine derivatives as bradykinin antagonists” (Richter Gegeon Nyrt., priority 2005, dated 2011).
Structures can show the parent of a compound that is named as a salt.

Assays:
[1] = target: T1, recombinant human B1 receptors (Homo sapiens, UniProt P46663); test: Antagonist potency by measurement of cytosolic calcium ion concentration in CHO-B1 cells (agonist LysDABK); format: cell-based; conditions: inhibition of LysDABK (EC80)-evoked [Ca2+]i elevation, fluo-4, read-out: B1 func.
T1 construct: host or cells: CHO (CHO-B1)
T1 sequence (P46663 1-353): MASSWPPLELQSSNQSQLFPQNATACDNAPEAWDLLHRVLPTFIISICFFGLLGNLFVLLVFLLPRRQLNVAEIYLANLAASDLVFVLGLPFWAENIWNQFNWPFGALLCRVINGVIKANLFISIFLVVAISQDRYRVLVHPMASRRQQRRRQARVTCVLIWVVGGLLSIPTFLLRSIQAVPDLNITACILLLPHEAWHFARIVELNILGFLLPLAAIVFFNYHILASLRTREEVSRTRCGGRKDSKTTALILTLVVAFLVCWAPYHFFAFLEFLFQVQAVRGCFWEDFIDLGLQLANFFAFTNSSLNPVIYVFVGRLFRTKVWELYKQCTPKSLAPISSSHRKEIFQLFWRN
Procedure: Assessment of Antagonist Potency at B1 and B2 Receptors In Vitro by Measurement of Cytosolic Calcium Ion Concentration with a Plate Reader Fluorimeter in Cells Expressing Recombinant Human B1 or B2 Receptors
Chinese hamster ovary (CHO) cells stably expressing recombinant human B1 (CHO-B1, Euroscreen) or B2 (CHO-B2, Perkin-Elmer) receptors were cultured in Dulbecco's Modified Eagle's Medium (DMEM) containing 10% Fetal Calf Serum (FCS), 100 U/ml penicillin, 0.1 mg/ml streptomycin, 0.25 μg/ml amphotericin B, 1% Minimum Essential Medium Eagle (MEM), non essential amino acid solution, 600 μg/ml G418, 1% pyruvate (for the B2 cell line). Cells were kept at 37° C. in a humidified incubator in an atmosphere of 5% CO2/95% air and were passaged 1:4 three times a week. Cells were plated at 1.5-2.5×10^4 cell/well on standard 96-well microplates, measurements of cytosolic calcium ion concentration ([Ca^2+]i) were carried out 1-2 days after cell plating.
Measurements of [Ca^2+]i were carried out on CHO-B1 and CHO-B2 cells stably expressing human B1 and B2 receptors, respectively. Cells were grown in standard 96-well microplates and before the measurement were loaded with a fluorescent Ca^2+-sensitive dye, fluo-4/AM (2 μM): after removing the culture medium the dye was added to the cells (dissolved in assay buffer: 145 mM NaCl, 5 mM KCl, 2 mM MgCl2, 2 mM CaCl2, 10 mM HEPES, 20 mM D-glucose, 2 mM probenecid, 100 μl/well) and cells were incubated at 37° C. in a humidified incubator in an atmosphere of 5% CO2/95% air for 40-120 min. To stop dye loading cells were washed twice with assay buffer. After washing, various concentrations of the test compounds (diluted in extracellular medium from a DMSO stock solution, final DMSO concentration was <0.1%) or buffer were added to each well depending on the experimental setup. After incubation at 37° C. for 20-25 min. baseline and agonist-evoked changes of [Ca^2+]i were measured column by column with a plate reader fluorimeter (Fluoroskan Ascent, Labsystems). Excitation and detection of emission was carried out from the bottom of the plate. Filters used for Fluo-4: excitation filter −485 nm, emission filter −538 nm. The whole measurement process was performed at 37° C. and was controlled by custom software. Inhibitory potency of the test compounds was assessed by measuring the reduction in the agonist-evoked [Ca^2+]i-elevation in the presence of different concentrations of the compounds. The agonists were LysDABK for CHO-B1, and bradykinin for CHO-B2 cells. Agonists were applied at an EC80 concentration, the EC80-values were derived from daily determined dose-response curves. Fluorescence data were expressed as ΔF/F (fluorescence change normalized to baseline). All treatments on a single plate were measured in multiple wells. Data from all wells with the same treatment were averaged and the average values were used for analysis. Inhibitory potency of a compound at a single concentration point was expressed as percent inhibition of the control agonist response. Sigmoidal concentration-inhibition curves were fitted to the data (derived from at least three independent experiments) and IC50-values were determined as the concentration that produces half of the maximal inhibition caused by the compound.

[2] = target: T2, human recombinant bradykinin1 receptors (Homo sapiens, UniProt P46663); test: Human recombinant bradykinin B1 receptor binding; conditions: CHO cell membranes, [3H]-[Des-Arg10] Kallidin radioligand
T2 construct: host or cells: CHO cells
T2 sequence (P46663 1-353): T1 sequence (P46663 1-353)
Procedure: Receptor Binding Assays 1. Human Recombinant Bradykinin B1 Receptor Binding
Binding assays were carried out on human recombinant bradykinin1 receptors (expressed in CHO cells) according to the Euroscreen Technical Data Sheet (Cat. No.: ES-091). 20 μg protein/tube was incubated with [3,4-prolyl-3,4-^3H(N)]-[Des-Arg^10] Kallidin as radioligand. Non specific binding was determined in the presence of 10 μM Lys-des-Arg^9-Bradykinin. The final incubation volume was 250 μl. Samples were incubated for 15 min. at 25° C. then were rapidly vacuum filtered through GF/B filters presoaked for at least 1 h in 0.5% PEI. Radioactivity was determined by liquid scintillation spectroscopy.

SMILES	IC50 [1]	Ki [2]
N=C(N)c1ccc(CCNC(=O)CC2c3ccccc3-c3ccccc3N2S(=O)(=O)c2ccc(Cl)c(Cl)c2)cc1 (centres unmarked) [Example 20, N-[2-(4-Carbamimidoyl-phenyl)-ethyl]-2-[5-(3,4-dichloro-benzenesulfonyl)-5,6-dihydro-phenanthridin-6-yl]-acetamide]	< 0.1 µM	< 0.1 µM
O=C(CC1c2ccccc2-c2ccccc2N1S(=O)(=O)c1ccc(Cl)c(Cl)c1)N[C@H]1CC[C@H](CCN2CCCC2)CC1 (stereo partly drawn) [Example 4, trans-2-[5-(3,4-Dichloro-benzenesulfonyl)-5,6-dihydro-phenanthridin-6-yl]-N-[4-(2-pyrrolidin-1-yl-ethyl)-cyclohexyl]-acetamide]	< 0.1 µM	< 0.1 µM
O=C(CC1c2ccccc2-c2ccccc2N1S(=O)(=O)c1ccc(Cl)c(Cl)c1)N1CCC(Cc2ccc(C3=NCCCN3)cc2)CC1 (centres unmarked) [Example 6, 2-[5-(3,4-Dichloro-benzenesulfonyl)-5,6-dihydro-phenanthridin-6-yl]-1-{4-[4-(1,4,5,6-tetrahydro-pyrimidin-2-yl)-benzyl]-piperidin-1-yl}-ethanone]	< 0.1 µM	< 0.1 µM
CC(=O)c1ccc2c(c1)C(CC(=O)NCCc1ccc(C3=NCCN3)cc1)N(S(=O)(=O)c1ccc(Cl)c(Cl)c1)c1ccccc1-2 (centres unmarked) [Example 19, 2-[8-Acetyl-5-(3,4-dichloro-benzenesulfonyl)-5,6-dihydro-phenanthridin-6-yl]-N-{2-[4-(4,5-dihydro-1H-imidazol-2-yl)-phenyl]-ethyl}-acetamide hydrochloride]	0.1 to 0.5 µM	< 0.1 µM
COc1cccc2c1-c1ccccc1N(S(=O)(=O)c1ccc(Cl)c(Cl)c1)C2CC(=O)NCCc1ccc(C2=NCCN2)cc1 (centres unmarked) [Example 17, 2-[5-(3,4-Dichloro-benzenesulfonyl)-10-methoxy-5,6-dihydro-phenanthridin-6-yl]-N-{2-[4-(4,5-dihydro-1H-imidazol-2-yl)-phenyl]-ethyl}-acetamide hydrochloride]	< 0.1 µM	< 0.1 µM
O=C(CC1c2ccccc2-c2ccccc2N1S(=O)(=O)c1ccc(Cl)c(Cl)c1)NCCc1ccc(C2=NCCN2)cc1 (centres unmarked) [Example 2, 2-[5-(3,4-Dichloro-benzenesulfonyl)-5,6-dihydro-phenanthridin-6-yl]-N-{2-[4-(4,5-dihydro-1H-imidazol-2-yl)-phenyl]-ethyl}-acetamide hydrochloride]	< 0.1 µM	< 0.1 µM
O=C(CC1c2ccccc2-c2ccccc2N1S(=O)(=O)c1ccc(Cl)c(Cl)c1)NCCCN1CCN(c2ccncc2)CC1 (centres unmarked) [Example 9, 2-[5-(3,4-Dichloro-benzenesulfonyl)-5,6-dihydro-phenanthridin-6-yl]-N-[3-(4-pyridin-4-yl-piperazin-1-yl)-propyl]-acetamide]	< 0.1 µM	< 0.1 µM

Next, values leading:

IC50 [1]	Ki [2]	SMILES
< 0.1 µM	< 0.1 µM	O=C(C[C@@H]1C(=O)Nc2ccccc2N1S(=O)(=O)c1ccc(Cl)c(Cl)c1)NCCc1ccc(C2=NCCN2)cc1 [Example 70004287, 2-[1-(3,4-dichloro-benzenesulfonyl)-3-oxo-1,2,3,4-tetrahydroquinoxalin-2(R)-yl]-N-{2-[4-(4,5-dihydro-1H-imidazol-2-yl)-phenyl]-ethyl}-acetamide, reference compound]
> 0.5 µM	> 0.5 µM	NCc1ccc(CC(NC(=O)CC(NS(=O)(=O)c2ccc3ccccc3c2)c2ccccc2)C(=O)N2CCCC2)cc1 (racemic) [Example 70003770, (±)-N-[1-(4-aminomethyl-benzyl)-2-oxo-2-pyrrolidin-1-yl-ethyl]-3-(naphthalene-2-sulfonylamino)-3-phenyl-propionamide, reference compound]
< 0.1 µM	< 0.1 µM	COc1cccc2c1-c1ccccc1N(S(=O)(=O)c1ccc(Cl)c(Cl)c1)C2CC(=O)N[C@H]1CC[C@H](CCN2CCCC2)CC1 (stereo partly drawn) [Example 21, trans-2-[5-(3,4-Dichloro-benzenesulfonyl)-10-methoxy-5,6-dihydro-phenanthridine-6-yl]-N-[4-(2-pyrrolidin-1-ylethyl)-cyclohexyl]-acetamide]
